Experimental findings from patent publication US20200030304A1 (priority 2017, published 2020) are described below.

This data set concerns DFP-induced status epilepticus. Conditions: rat, in vivo.

For `Cc1ncc2n1-c1ccc(Cl)cc1C(c1ccccc1F)=NC2` [Midazolam, midazolam], the “effect on behavioral seizure scores induced by DFP” value is reported as “in-effective in reducing the behavioral seizure scores” and the mortality result is reported as “no mortality”.

Take `CCCC(CCC)C(=O)[O-].[Na+]` [sodium valproate]: the “termination of status epilepticus / EEG epileptiform activity” value was “intermittent spikes and seizure activity during the whole 5 h of EEG recording”.
